Data published in PMC12095047, “Transport of phenoxyacetic acid herbicides by PIN-FORMED auxin transporters” (Nature Plants, 2025).
Several values for one entry are separate records, joined by “and”; a condition that tells them apart may be missing. Equal entries are not always repeated. Where two headings read alike, the source gives them in different places.

Legend:
Format in all cases: biochemical
PIN8 N117A = molecular target: T1, PIN8 N117A (Arabidopsis thaliana, UniProt Q9LFP6, N117A); assay: SSM electrophysiology peak current, PIN8 N117A proteoliposomes; conditions: for Relative Peak Current of WT (%): Substrate 4-CPA, replicates
T1 construct: made in house
T1 sequence (Q9LFP6 whole entry N117A): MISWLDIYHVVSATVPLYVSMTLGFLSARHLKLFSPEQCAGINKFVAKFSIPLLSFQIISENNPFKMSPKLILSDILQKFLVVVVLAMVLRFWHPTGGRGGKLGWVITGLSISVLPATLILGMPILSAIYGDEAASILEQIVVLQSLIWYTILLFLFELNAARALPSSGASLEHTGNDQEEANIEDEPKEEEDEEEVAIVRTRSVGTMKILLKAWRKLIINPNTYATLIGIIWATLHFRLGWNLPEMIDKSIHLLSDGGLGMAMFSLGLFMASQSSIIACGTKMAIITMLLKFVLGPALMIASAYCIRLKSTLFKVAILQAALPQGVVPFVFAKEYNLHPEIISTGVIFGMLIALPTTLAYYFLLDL
Protocol: (§1) SSM, using a SURFE2R N1 from Nanion Technologies, was conducted as described. In brief, soy polar lipid mix (38% phosphatidyl choline, 30% phosphatidyl ethanolamine, 18% phosphatidyl inositol, 7% phosphatidic acid and 7% other soy lipids) and 1-palmitoyl-2-oleoyl-sn-glycero-3-phosphocholin were purchased from Avanti. Liposomes were prepared in Ringer solution without Ca^2+ (115 mM NaCl, 2.5 mM KCl, 1 mM NaHCO3, 10 mM HEPES pH7.4, 1 mM MgCl2) and homogenized using a Lipsofast (Avestin) with a […]. Triton X-100 was added to the liposomes to a final concentration of 1% (v/v). Protein was added to liposomes to a calculated lipid-to-protein ratio (LPR) of 10 unless stated otherwise. The detergent was removed using 400 mg ml^−1 Bio Beads (BioRad) overnight at 4 °C in a rotary shaker. Proteoliposomes were frozen in liquid nitrogen and kept at −80 °C until use. Proteoliposomes were diluted 1:5 in Ringer solution without Ca^2+, sonicated five times and then applied to the sensors by centrifugation (30 min, 3,000 g, 4 °C). Non-activating buffer was Ringer solution without Ca^2+ as described unless specified otherwise, and activating buffer contained the substrate of interest. In most instances we used a single-solution exchange experiment. In this case proteoliposomes, immobilized on the supported membrane, are kept in non-activating buffer as specified. At the beginning of the experiment the non-activating buffer is replaced with fresh identical non-activating buffer, and after 1 s, activating buffer (same buffer containing substrate) is added. After another second, the buffer is replaced with non-activating buffer again. Current response is recorded throughout the entire 3 s. For competition or inhibition, the respective compound was present in non-activating and activating solutions. Each experiment was performed on at least two individual sensors. On each sensor each measurement consists of three technical replicates where the mean is calculated. KD values were determined as described previously. Briefly, the binding current induced by 100 µM NPA was recorded in the presence of different concentrations of the substrate under investigation ranging between 0 µM and 1,000 µM present in the activating solution and the non-activating solution (Extended Data Fig. 5b). […] The maximum peak current was then plotted as a function of the concentration of the substrate under investigation and plotted against the degree of inhibition and fitted with a one-site binding model using GraphPad Prism V10.4.1 The half maximal concentration corresponds to the KD of the substrate under investigation.
(§2) The protocol for expression and purification of AtPIN8 protein (Uniprot: Q9LFP6) in lauryl maltose neopentyl glycol was described previously. All point mutants were generated using Q5 Site-Directed mutagenesis kit (New England Biolabs). The C-flat Holey Carbon grids (CF-1.2/1.3, Cu-300 mesh) were glow-discharged for 45 s at 15 mA in a GloQube Plus (Quorum). […] After 1 h of incubation on ice, the sample was centrifuged at 16,000 g for 15 min before blotting to remove precipitation. A drop of 4 µl of each sample was applied to the glow-discharged grids, blotted with a Vitrobot Mark IV (ThermoFisher Scientific) using the following settings (temperature 4 °C, 100% humidity, blot time of 4 s, blot force −1) and vitrified in liquid ethane.

PIN8 Y150A = molecular target: T2, PIN8 Y150A (Arabidopsis thaliana, UniProt Q9LFP6, Y150A); conditions: for Peak current: Y150A, individual sensors
T2 construct: made in house
T2 sequence (Q9LFP6 whole entry Y150A): as the sequence (Q9LFP6 whole entry N117A) above, with A117N, Y150A counted along it
Protocol: as §1, §2

PIN8 N223A = molecular target: T3, PIN8 N223A (Arabidopsis thaliana, UniProt Q9LFP6, N223A); conditions: N223A
T3 construct: made in house
T3 sequence (Q9LFP6 whole entry N223A): as the sequence (Q9LFP6 whole entry N117A) above, with A117N, N223A counted along it
Protocol: as §1, §2

PIN8 I51Y = molecular target: T4, PIN8 I51Y (Arabidopsis thaliana, UniProt Q9LFP6, I51Y); conditions: Michaelis–Menten fit
T4 construct: made in house
T4 sequence (Q9LFP6 whole entry I51Y): as the sequence (Q9LFP6 whole entry N117A) above, with I51Y, A117N counted along it
Protocol: as §1, §2

PIN8 S55A/S146A = molecular target: T5, PIN8 S55A/S146A (Arabidopsis thaliana, UniProt Q9LFP6, S146A/S55A); conditions: Michaelis–Menten fit
T5 construct: made in house
T5 sequence (Q9LFP6 whole entry S55A/S146A): as the sequence (Q9LFP6 whole entry N117A) above, with S55A, A117N, S146A counted along it
Protocol: as §1, §2

PIN8 Y150F = molecular target: T6, PIN8 Y150F (Arabidopsis thaliana, UniProt Q9LFP6, Y150F); conditions: PIN8 Y150F, Michaelis–Menten fit
T6 construct: made in house
T6 sequence (Q9LFP6 whole entry Y150F): as the sequence (Q9LFP6 whole entry N117A) above, with A117N, Y150F counted along it
Protocol: as §1, §2

PIN8 S266A = molecular target: T7, PIN8 S266A (Arabidopsis thaliana, UniProt Q9LFP6, S266A); conditions: PIN8 S266A, Michaelis–Menten fit
T7 construct: made in house
T7 sequence (Q9LFP6 whole entry S266A): as the sequence (Q9LFP6 whole entry N117A) above, with A117N, S266A counted along it
Protocol: as §1, §2

PIN8 S55A = molecular target: T8, PIN8 S55A (Arabidopsis thaliana, UniProt Q9LFP6, S55A); conditions: for Peak current: S55A, individual sensors
T8 construct: made in house
T8 sequence (Q9LFP6 whole entry S55A): as the sequence (Q9LFP6 whole entry N117A) above, with S55A, A117N counted along it
Protocol: as §1, §2

PIN8 S146A = molecular target: T9, PIN8 S146A (Arabidopsis thaliana, UniProt Q9LFP6, S146A); conditions: for Peak current: S146A, individual sensors
T9 construct: made in house
T9 sequence (Q9LFP6 whole entry S146A): as the sequence (Q9LFP6 whole entry N117A) above, with A117N, S146A counted along it
Protocol: as §1, §2

[1] = molecular target: T10, wild-type PIN8 proteoliposomes (Arabidopsis thaliana, UniProt Q9LFP6); assay: SSM electrophysiology, peak width (FWHM) of current response at LPR10 and LPR50; conditions: for Rel. FWHM (% of LPR10): replicates
T10 construct: made in house
T10 sequence (Q9LFP6 1-367): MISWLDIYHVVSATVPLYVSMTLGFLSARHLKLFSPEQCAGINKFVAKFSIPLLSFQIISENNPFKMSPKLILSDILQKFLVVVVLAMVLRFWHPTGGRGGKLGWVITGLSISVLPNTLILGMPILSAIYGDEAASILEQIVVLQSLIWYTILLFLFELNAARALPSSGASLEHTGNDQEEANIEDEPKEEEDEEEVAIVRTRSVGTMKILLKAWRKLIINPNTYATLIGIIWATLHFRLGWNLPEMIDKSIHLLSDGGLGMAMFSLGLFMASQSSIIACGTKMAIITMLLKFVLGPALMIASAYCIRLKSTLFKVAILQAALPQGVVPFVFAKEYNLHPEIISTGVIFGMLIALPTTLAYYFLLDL
Protocol: as §1

[2] = read-out: EC50 of peak current response

## O=C(O)COc1ccc(Cl)cc1 [4-CPA, 4-chlorophenoxyacetic acid]
PIN8 N117A; N117A mutation
  current response / function of PIN8 N117A: abolishes the current response
PIN8 N117A; 100µM
  Relative Peak Current of WT (%): 1.438% and 7.087% and 13.2919% and 50.142%
PIN8 N117A; 2mM
  Relative Peak Current of WT (%): 17.5134% and 20.2019% and 18.4651% and 19.2453%
PIN8 Y150A; PIN8 Y150A, Michaelis–Menten fit
  Imax: 5 ± 0.4 nA
PIN8 Y150A; PIN8 Y150A, Michaelis–Menten fit, read-out: EC50 of peak current response
  EC50: 2620 ± 263 µM
PIN8 Y150A; 5 µM substrate
  Peak current: 0.004001 nA and 0.000964 nA and 0.005187 nA and 0.01098 nA
PIN8 Y150A; 20 µM substrate
  Peak current: 0.001883 nA and 0.005268 nA and 0.002512 nA and 0.004292 nA
PIN8 Y150A; 50 µM substrate
  Peak current: 0.02123 nA and 0.03866 nA and 0.02734 nA and 0.07514 nA
PIN8 Y150A; 100 µM substrate
  Peak current: 0.1072 nA and 0.1421 nA and 0.1118 nA and 0.1489 nA
PIN8 Y150A; 500 µM substrate
  Peak current: 0.7863 nA and 0.8129 nA and 0.8214 nA and 0.8974 nA
PIN8 Y150A; 1000 µM substrate
  Peak current: 1.36 nA and 1.41 nA and 1.338 nA and 1.516 nA
PIN8 Y150A; 2000 µM substrate
  Peak current: 2.1396 nA and 2.167 nA and 2.059 nA and 2.335 nA
PIN8 N223A
  fold-change difference to the respective EC50 of wildtype PIN8: completely abolishes binding
PIN8 I51Y
  Imax: 3 ± 0.8 nA
PIN8 I51Y; [2]
  EC50: 1040 ± 252 µM
PIN8 S55A/S146A
  Imax: 11 ± 0.9 nA
PIN8 S55A/S146A; [2]
  EC50: 81 ± 3 µM
PIN8 Y150F
  Imax: 5 ± 0.9 nA
PIN8 Y150F; [2]
  EC50: 710 ± 228 µM
PIN8 S266A
  Imax: 7 ± 2 nA
PIN8 S266A; [2]
  EC50: 2100 ± 290 µM
PIN8 S55A; PIN8 S55A, Michaelis–Menten fit
  Imax: 11 ± 1 nA
PIN8 S55A; PIN8 S55A, Michaelis–Menten fit, read-out: EC50 of peak current response
  EC50: 328 ± 15 µM
PIN8 S55A; 5 µM substrate
  Peak current: 0.2701 nA and 0.2897 nA and 0.3406 nA
PIN8 S55A; 20 µM substrate
  Peak current: 0.9459 nA and 0.8941 nA and 1.017 nA
PIN8 S55A; 50 µM substrate
  Peak current: 1.817 nA and 1.664 nA and 1.992 nA
PIN8 S55A; 100 µM substrate
  Peak current: 2.935 nA and 2.612 nA and 3.1231 nA
PIN8 S55A; 500 µM substrate
  Peak current: 6.5808 nA and 5.777 nA and 6.881 nA
PIN8 S55A; 1000 µM substrate
  Peak current: 8.474 nA and 7.36 nA and 8.719 nA
PIN8 S55A; 2000 µM substrate
  Peak current: 10.4298 nA and 8.998 nA and 10.8546 nA
PIN8 S146A; PIN8 S146A, Michaelis–Menten fit
  Imax: 8 ± 2 nA
PIN8 S146A; 5 µM substrate
  Peak current: 0.16 nA and 0.306 nA and 0.183 nA and 0.211 nA
PIN8 S146A; 20 µM substrate
  Peak current: 0.62 nA and 0.288 nA and 0.616 nA
PIN8 S146A; 50 µM substrate
  Peak current: 1.139 nA and 1.066 nA and 1.161 nA and 1.319 nA
PIN8 S146A; 100 µM substrate
  Peak current: 1.866 nA and 1.352 nA and 1.859 nA and 2.228 nA
PIN8 S146A; 500 µM substrate
  Peak current: 4.245 nA and 2.76 nA and 4.229 nA and 5.107 nA
PIN8 S146A; 1000 µM substrate
  Peak current: 5.47 nA and 3.518 nA and 5.371 nA and 6.513 nA
PIN8 S146A; 2000 µM substrate
  Peak current: 6.809 nA and 4.912 nA and 6.602 nA and 8.134 nA
[1]; LPR10
  Rel. FWHM (% of LPR10): 1.033 % of LPR10 and 0.9836 % of LPR10 (2×)
[1]; LPR10 versus LPR50
  peak width of SSM-based current response as a function of lipid-to-protein ratio (LPR): vary with lipid-to-protein ratio (LPR)
[1]; LPR50
  Rel. FWHM (% of LPR10): 1.475 % of LPR10 (2×) and 1.328 % of LPR10 and 1.377 % of LPR10
